These molecules were tested on Eschericia coli (E. coli) strain ATCC25922 (assay: Standard microdilution assay, MIC against E. coli ATCC25922). Conditions: Escherichia coli; E. coli strain ATCC25922, standard microdilution assay; cutoff 16 micrograms/mL; read-out: MIC E. Coli.
Assay type: cell-based
Description: The in vitro activity of the compounds of the present invention can be determined. Antimicrobial testing is typically performed to determine the minimum inhibitory concentration (MIC). Minimum inhibitory concentrations (MICs) are determined by the microdilution method in a final volume of 100 μl according to protocols outlined by The Clinical and Laboratory Standards Institute (CLSI). Performance standards for reference strains are assessed within the same experimental design to maintain quality control. See, for example, Clinical Laboratory Standards Institute: Methods for dilution antimicrobial susceptibility tests for bacteria that grow aerobically M7-A8. Approved Standard-Eighth Edition. Wayne, Pa.: CLSI; December 2008; and Clinical Laboratory Standards Institute: Performance Standards for Antimicrobial Susceptibility Testing M100-S20; Approved Standard-Twentieth Edition. Wayne, Pa.: CLSI; June 2010.
The compounds of the present invention were tested for antimicrobial activity. The Compounds 1-582 were run against Eschericia coli (E. coli) strain ATCC25922 and Compounds 320-582 were run against Staphylococcus aureus (S. aureus) 11540 strain using a standard microdilution assay to determine minimum inhibitory concentrations (MICs). […] It will be recognized by one skilled in the art that the compounds can be assessed against other bacterial organisms and that the presentation of data for activity against Eschericia coli and Staphylococcus aureus are illustrative and in no way is intended to limit the scope of the present invention. The compounds of the present invention can be assayed against a range of other microorganisms depending upon the performance activity desired to be gathered. Furthermore, the “+” and “−” representation and the selection of a cutoff value of 16 micrograms/mL is also illustrative and in no way is intended to limit the scope of the present invention.
`C[C@H](N)CCCc1cc(Cl)c(F)c(-c2cc3cn(-c4ccc([C@H](N)CCCCNC(=N)N)cc4)c(=O)nc3[nH]2)c1` [Compound 92] gave an MIC of less than 16 µg/mL.
With `C[C@H](N)CCCc1cc(SC(F)(F)F)cc(-c2cc3cn(-c4ccc([C@H](N)CCCCNC(=N)N)cc4)c(=O)nc3[nH]2)c1` [Compound 93] the MIC was less than 16 µg/mL.
In the case of `C[C@H](N)CCCc1cc(-c2cc3cn(-c4ccc([C@H](Cn5ccnn5)NCCCNC(=N)N)cc4)c(=O)nc3[nH]2)cc(C(F)(F)F)c1` [Compound 94], the MIC is reported as less than 16 µg/mL.
With `C[C@H](N)CCCc1cc(Cl)c(F)c(-c2cc3cn(-c4ccc([C@@H](CF)NCCCNC(=N)N)cc4)c(=O)nc3[nH]2)c1` [Compound 95] the MIC was less than 16 µg/mL.
Molecule `C[C@H](N)CCCc1cc(SC(F)(F)F)cc(-c2cc3cn(-c4ccc([C@@H](CF)NCCCNC(=N)N)cc4)c(=O)nc3[nH]2)c1` [Compound 96] has an MIC of less than 16 µg/mL.
`C[C@H](N)CCCc1cc(-c2cc3cn(-c4ccc([C@@H](CF)NCCCNC(=N)N)cc4)c(=O)nc3[nH]2)cc(C(F)(F)F)c1` [Compound 97] was tested, and the MIC was less than 16 µg/mL.
`C[C@H](N)CCCc1cc(-c2cc3cn(-c4ccc([C@H]5COC(=O)N5CCCNC(=N)N)cc4)c(=O)nc3[nH]2)cc(C(F)(F)F)c1` [Compound 98] showed an MIC of less than 16 µg/mL.
`C[C@H](N)CCCc1cc(Cl)c(F)c(-c2cc3cn(-c4ccc([C@H](CCCO)NCCCNC(=N)N)cc4)c(=O)nc3[nH]2)c1` [Compound 99] gave an MIC of less than 16 µg/mL.
Work on `C[C@H](N)CCCc1cc(SC(F)(F)F)cc(-c2cc3cn(-c4ccc([C@H](CCCO)NCCCNC(=N)N)cc4)c(=O)nc3[nH]2)c1` [Compound 100] yielded an MIC of less than 16 µg/mL.
`C[C@H](N)CCCc1cc(-c2cc3cn(-c4ccc([C@H](CCCO)NCCCNC(=N)N)cc4)c(=O)nc3[nH]2)cc(C(F)(F)F)c1` [Compound 101] was tested, and the MIC was less than 16 µg/mL.
In the case of `C[C@H](N)CCCc1cc(Cl)c(F)c(-c2cc3cn(-c4ccc([C@@H](NCCCNC(=N)N)C5CC5)cc4)c(=O)nc3[nH]2)c1` [Compound 102], the MIC is reported as less than 16 µg/mL.
`C[C@H](N)CCCc1cc(Cl)c(F)c(-c2cc3cn(-c4ccc([C@H](CO)NCCCNC(=N)N)cc4)c(=O)nc3[nH]2)c1` [Compound 103] was tested, and the MIC was less than 16 µg/mL.
With `C[C@H](N)CCCc1cc(SC(F)(F)F)cc(-c2cc3cn(-c4ccc([C@H](CO)NCCCNC(=N)N)cc4)c(=O)nc3[nH]2)c1` [Compound 104] the MIC was less than 16 µg/mL.
`C[C@H](N)CCCc1cc(Cl)c(F)c(-c2cc3cn(-c4ccc([C@H](CC5=CCCN(C)C5)NCCCNC(=N)N)cc4)c(=O)nc3[nH]2)c1` [Compound 105] showed an MIC of less than 16 µg/mL.
Molecule `C[C@H](N)CCCc1cc(SC(F)(F)F)cc(-c2cc3cn(-c4ccc(C(NCCCNC(=N)N)c5nnn[nH]5)cc4)c(=O)nc3[nH]2)c1` (stereo partly drawn) [Compound 106] has an MIC of less than 16 µg/mL.
`C[C@H](N)CCCc1cc(Cl)c(F)c(-c2cc3cn(-c4ccc([C@H](C)NCCCN)cc4)c(=O)nc3[nH]2)c1` [Compound 107] was tested, and the MIC was less than 16 µg/mL.
With `C[C@H](N)CCCc1cc(-c2cc3cn(-c4ccc([C@H](CO)NCCCNC(=N)N)cc4)c(=O)nc3[nH]2)cc(C(F)(F)F)c1` [Compound 108] the MIC was less than 16 µg/mL.
In the case of `O=c1nc2[nH]ccc2cn1-c1ccc(CNCc2cccnc2)cc1` [Compound 109], the MIC is reported as greater than 16 µg/mL.
For `C[C@H](NCCCNC(=N)N)c1ccc(-n2cc3cc(-c4cc(SC(F)(F)F)cc([C@H](O)CC[C@@H](N)CO)c4)[nH]c3nc2=O)cc1` [Compound 110], the MIC was less than 16 µg/mL.
`C[C@H](NCCCNC(=N)N)c1ccc(-n2cc3cc(-c4cc(SC(F)(F)F)cc([C@H](O)CC[C@H](N)CO)c4)[nH]c3nc2=O)cc1` [Compound 111] showed an MIC of less than 16 µg/mL.
Molecule `C[C@H](N)CCCc1cc(Cl)c(F)c(-c2cc3cn(-c4ccc(CNCc5cccnc5)cc4)c(=O)nc3[nH]2)c1` [Compound 112] has an MIC greater than 16 µg/mL.
With `C[C@H](N)CCCc1cc(SC(F)(F)F)cc(-c2cc3cn(-c4ccc(CNCc5cccnc5)cc4)c(=O)nc3[nH]2)c1` [Compound 113] the MIC was greater than 16 µg/mL.
In the case of `O=C(O)CNCc1ccc(-n2cc3cc[nH]c3nc2=O)cc1` [Compound 114], the MIC is reported as greater than 16 µg/mL.
Work on `C[C@H](N)CCCc1cc(Cl)c(F)c(-c2cc3cn(-c4ccc(CNCC(=O)O)cc4)c(=O)nc3[nH]2)c1` [Compound 115] yielded an MIC greater than 16 µg/mL.

— patent US10815238B2, “Antimicrobial compounds and methods of making and using the same” (BIOVERSYS AG, priority 2013, dated 2020)
